From paper PMC11674305, “Inhibition of Neural Crest Cell Migration by Strobilurin Fungicides and Other Mitochondrial Toxicants” (Cells, 2024)
Where “and” joins values, the source holds several entries; their conditions need not be identical. Identical values can stand only once. Like-named read-outs stand apart in the source and are kept apart here.

How the values were obtained:
Format in all cases: cell-based, human
[1] = system: neural crest cells (NCC); assay: cMINC (UKN2) assay: circular migration of neural crest cells, with viability; conditions: for Migration / Viability: Pre-Screen 1, single concentration 1:1000 of stock, in most cases 100 μM; for BMC25 (M): migration; for Ratio: migration/cytotoxicity ratio, hit requires ≥ 1.3, HTC used where no viability effect
Experimental: The research group initially developed the first version of the test in 2012 [40]. The test has been further improved and characterized. To perform the cMINC assay, NCCs were thawed in N2-S Medium and seeded on the day of migration-1 (DoM-1) on a 96-well polystyrene plate (Corning, Glendale, AZ, USA) around stoppers, to create a cell-free area of 2 mm diameter (Platypus Technologies, Madison, WI, USA). The cells were resuspended in N2-S Medium supplemented with […] of the cytokines EGF and FGF, and then counted and seeded around the stoppers at a density of 95,000 cells/cm^2. After 24 h, the stoppers were removed, and the medium was exchanged. The removal of the stoppers initiates migration of the NCCs into the cell-free area. For the treatment, the 5x-concentrated toxicant solution was added to the medium 24 h after stopper removal.
On day 2, cells were stained with 533 nM calcein-AM and 1 μg/mL H-33342 (both from Sigma, Steinheim, Germany) and observed using two different channels on the Cellomics ArrayScan VTI imaging microscope (Thermo Fisher, Pittsburgh, PA, USA) to assess viability and migration. For the migration, four pictures were taken in the region of interest (ROI) (5× magnification objective). Migration data were obtained using the software “Ringassay” (http://invitrotox.uni-konstanz.de/ (accessed on 3 November 2024)), which can estimate the previously cell-free area and count the number of H-33342 and calcein-AM double-positive cells. Cell viability was assessed by taking four pictures outside of the ROI with 10× magnification objective. Viable cells were defined as H-33342 and calcein-AM double-positive cells and calculated by an automatic algorithm of the ArrayScan VTI 700 Series software as described earlier. […] Each plate included wells for testing of negative (0.1% DMSO solvent) and positive controls (200 nM cytochalasin D) in addition to the wells for blinded samples. The data from control wells were used as acceptance criteria of the assay. […] Renormalization of the concentration–response curves was performed after a visual inspection that the two lowest test-concentration data points are in the no-effect range. The average response (relative to solvent control) of the lowest two test concentrations was calculated, and all other data points of the same curve were divided by this average value. The calculations of the benchmark concentrations 10 for viability (BMC10 (V)) and 25 for migration (BMC25 (M)) were performed with the online available BMC software (http://invitrotox.uni-konstanz.de/ (accessed on 4 November 2024)).

[2] = system: neural crest cells (NCC); assay: Intracellular ATP measurement (CellTiterGlo); conditions: at BMC10 (V) of cMINC; for ATP levels: after 60 min
Experimental: Cells were seeded at a density of 20,000 cells/well. The NCCs were treated with the BMC10 (V) of the cMINC screen for one hour, six hours or 24 h. Then, a CellTiterGlo-Triton mix was prepared. Therefore, a 0.5% Triton solution in PBS was prepared, and the commercial reagent mix CellTiterGlo 2.0 (Promgea, Madison, WI, USA) was added in a 1:1 ratio. An amount of 50 µL/well of the mix was added to 100 µL of medium. The plate was shaken for two minutes, and 100 µL of the cell mixture was transferred to a white measurement plate. For the blank value, only medium with the mix was measured. Luminescence data of samples were normalized to DMSO solvent controls, and the ATP data are given in % relative to “untreated cells”.

[3] = system: neural crest cells (NCC); assay: Seahorse oxygen consumption rate (mitochondrial stress test); conditions: at BMC10 (V) of cMINC, after basal respiration recording
Experimental: The Seahorse bioanalyzer simultaneously measures cellular oxygen consumption rates (OCR) and extracellular acidification rates (ECAR). Therefore, NCCs were seeded at least two days prior to the assays at a density of 80,000 cells/well on Seahorse XF96 V3 PS Cell Culture Microplates (Agilent, Santa Clara, CA, USA) in either glucose medium or galactose medium. After 24 h, the medium was exchanged. For the real-time ATP production rate and mitochondrial stress assay, the cartridge was hydrated at 0% CO2 and 37 °C, and the seahorse was turned on to stabilize the temperature one day prior. The medium was changed to Seahorse XF DMEM Medium (Agilent, Santa Clara, CA, USA) supplemented with 2 mM L-glutamine, 1 mM pyruvate and 18 mM glucose or galactose 1 h before the start of the assays. Directly before the start of the assay, the medium was exchanged again. The sensor cartridge was loaded with the test compounds anchored to the BMC10 (V) of the cMINC screen and the recommended concentrations of calibration compounds for a mitochondrial stress test. These were 5 μM oligomycin, 15 μM carbonyl cyanide p-trifluoro methoxyphenylhydrazone (FCCP) and 5 μM rotenone plus 5 μM antimycin A. Additionally, 1 μg/mL H-33342 was added to the rotenone and antimycin A injection to perform afterwards a cell count (Cellomics, Waltham, MA, USA), to which the data were normalized. Six technical replicates were used for control conditions, and three technical replicates were used for other samples. The software Seahorse Analytics (Agilent, Santa Clara, CA, USA) was used for the evaluation (https://seahorseanalytics.agilent.com (accessed on 30 October 2024)).

[4] = system: neural crest cells (NCC); assay: Transwell migration assay (FBS chemoattractant, 6 h); conditions: for effect on transwell migration: negative controls, 100 µM
Experimental: Cells were seeded at a density of 50,000 cells/well (150,000 cells/cm^2) into the upper chamber (insert) of the 96-well transwell plates (pore size 8 μm, polycarbonate membrane, Corning, Glendale, AZ, USA). The cells were stimulated to migrate through the membrane by medium supplemented with 5% of the chemoattractant fetal bovine serum (FBS) (PAA Laboratories, Pasching, Austria) in the lower chamber (reservoir). For testing of migration inhibition upon compound treatment, compounds were used at a concentration of BMC10 (V) of prior cMINC testing. Three technical replicates per condition were used. As a control for “unstimulated” migration, medium without any chemoattractant was tested. As an endpoint specific control for “inhibited” migration, CytoD with a concentration of 200 nM was used. After 6 h incubation time, the medium was aspirated, and reservoirs were washed with DPBS. Afterwards, reservoirs were filled with EDTA dissociation solution (DPBS supplemented with 0.1% 0.5 M EDTA UltraPure pH 8.0 (Thermo Fisher Scientific, Waltham, MA, USA), and 0.18% NaCl) containing 0.25 μL/mL calcein-AM and incubated for 30 min at 37 °C. The plates were then centrifuged at 300× g for 5 min (1200 rpm, Heraeus Multifuge 1 S-R, ThermoScientific) to remove migrated cells from the membrane. The tray with 96 wells of permeable inserts was removed, and the receiver plate was measured in the spectrophotometer (TECAN, Männedorf, Switzerland) with an emission wavelength of 520 nm. After subtraction of the blank values, the number of migrated cells was normalized to that of cells stimulated with FBS.
To perform the experiments under mitochondria-dependent conditions, the cells were handled exactly in the same way, but the medium was adapted. The N2-S medium was adjusted, so that no glucose was present but galactose. The medium consisted of SILAC^TM Advanced DMEM/-F12 FLEX (Gibco/Fisher Scientific, Hampton, NH, USA), 15 μg/mL insulin, 400 μM GlutaMAX, 0.7 mM L-Arginine, 0.5 mM L-Lysine, 21.5 µM Phenol Red, 20 nM progesterone, 100 μM putrescine and 30 nM selenium, 92.5 μg/mL apotransferrin, 4.7 mg/mL galactose (18 mM). The cytokines 20 ng/mL EGF and 20 ng/mL FGF2 were always freshly added to each run.

[5] = viability, primary screen, 24 h exposure, * = no effect up to highest tested concentration
[6] = Homo sapiens, 24 h, primary screen, 24 h exposure, read-out: BMC25

SMILES | Migration [1] | Viability [1] | Ratio [1] | BMC10 (V) [1, 5] | BMC25 (M) [1, 6] [M] | effect on oxygen consumption rate (OCR) after injection [3] | other results
CO/C=C(/C(=O)OC)c1ccccc1Oc1cc(Oc2ccccc2C#N)ncn1 [Azoxystrobin, azoxystrobin] | 59 % of control | 95 % of control | 3.5 | > 100 µM | – | – | BMC25 (M) ([1]; primary screen, 24 h exposure): 2.9e-05 M and 3e-05 M; effect on viability in the tested concentration range ([1]; primary screen): did not reduce viability at all; ATP levels [2]: did not decrease
CCOCn1c(-c2ccc(Cl)cc2)c(C#N)c(Br)c1C(F)(F)F [Chlorfenapyr, chlorfenapyr] | 0 % of control | – | 1.3 | – | 5.1e-06 | no decrease in OCR | BMC10 (V) ([1]; human, 24 h): 6.8 µM; decline of ATP ([2]; after 1 h): > 25%; decline of ATP ([2]; after 24 h): > 90%
Cc1ccc(-c2c(Cl)nc(C#N)n2S(=O)(=O)N(C)C)cc1 [Cyazofamid, cyazofamid] | 29 % of control | – | 2.6 | – | 7.8e-06 | the OCR increased continuously | BMC10 (V) ([1]; human, 24 h): 20 µM
Cc1nn(C)c(Oc2ccccc2)c1C=NOCc1ccc(C(=O)OC(C)(C)C)cc1 [Fenpyroximate, fenpyroximate] | 38 % of control | 95 % of control | 1.9 | 7 µM and 6.6 µM | 3e-06 | completely shut down the mitochondrial respiration | ATP levels [2]: did not decrease; decrease in ATP levels ([2]; after 6 h): > 25%
O=[N+]([O-])c1cc(C(F)(F)F)c(Cl)c([N+](=O)[O-])c1Nc1ncc(C(F)(F)F)cc1Cl [Fluazinam, fluazinam] | 0 % of control | 2 % of control | 2.0 | 0.8 µM | 4e-07 | no decrease in OCR | decline of ATP ([2]; after 1 h): > 25%; decline of ATP ([2]; after 24 h): > 90%
CO/N=C(/C1=NOCCO1)c1ccccc1Oc1ncnc(Oc2ccccc2Cl)c1F [Fluoxastrobin, fluoxastrobin] | 60 % of control | 95 % of control | 4.6 | > 100 µM | 2e-05 | – | effect on viability in the tested concentration range ([1]; primary screen): did not reduce viability at all
CO/N=C(/C(=O)OC)c1ccccc1COc1ccccc1C [Kresoxim-methyl, kresoxim-methyl] | 72 % of control | 33 % of control | 1.6 | 43 µM | 2.7e-05 | – | –
O=C1O[C@H]([C@@H](O)CO)C(O)=C1O [L-ascorbic acid, reference compound] | 100 % of control | – | – | – | – | – | effect on transwell migration [4]: no inhibited migration was observed
COC(=O)N(OC)c1ccccc1COc1ccn(-c2ccc(Cl)cc2)n1 [Pyraclostrobin, pyraclostrobin] | 72 % of control | 97 % of control | 2.6 | 44 µM | 1.7e-05 | – | ATP levels [2]: did not decrease
CC(C)(C)c1ccc(CSc2cnn(C(C)(C)C)c(=O)c2Cl)cc1 [Pyridaben, pyridaben] | 58 % of control | – | 1.8 | – | 4.7e-05 | completely shut down the mitochondrial respiration | BMC10 (V) ([1]; human, 24 h): 83 µM
C=C(C)[C@H]1Cc2c(ccc3c2O[C@@H]2COc4cc(OC)c(OC)cc4[C@@H]2C3=O)O1 [Rotenone, rotenone] | 0 % of control | 0 % of control | 1.9 | 0.1 µM | – | – | IC25 ([1]; Homo sapiens, 24 h, read-out: BMC25 (M)): 6e-08 M
O=C1NS(=O)(=O)c2ccccc21 [Saccharin sodium hydrate, reference compound] | 103 % of control | – | – | – | – | – | effect on transwell migration [4]: no inhibited migration was observed
CON=C(C(=O)OC)c1ccccc1CON=C(C)c1cccc(C(F)(F)F)c1 [Trifloxystrobin, trifloxystrobin] | 85 % of control | – | 1.4 | – | 1.3e-05 | – | BMC10 (V) ([1]; human, 24 h): 18 µM
C=C1[C@@H](C)[C@H]2[C@H](Cc3ccccc3)NC(=O)[C@]23[C@H](OC(C)=O)/C=C/[C@@](C)(O)C(=O)[C@@H](C)C/C=C/[C@H]3[C@@H]1O [cytochalasin D, Cytochalasin D] | – | – | – | – | – | – | reduced migration ([4]; 200 nM, positive control): 75%
